Laboratory results published in US3933782A, “(N-Acetyl)-Pro-D-Phe-Trp-Ser-Tyr-D-Ala-Leu-Arg-Pro-NHEt and intermediates” (American Home Products Corporation, priority 1974, dated 1976).
Where a SMILES comes first, the peptide text is derived from it. [ ]: non-standard residue; d: D form. pGlu = O=C1CC[C@@H](C(=O)O)N1

What was measured:
[1] = test system: ovulation in mature Sprague-Dawley rats; conditions: same rat ovulation test; absence of or significant decrease in number of ova is the criterion
Experimental: The test was conducted with mature Sprague-Dawley rats, normally cycling, unanesthetized, proestrous rats. On the afternoon of proestrous, each rat in the test group received six subcutaneous injections of the acetate salt of formula I in corn oil, each injection being given a half hour following the previous injection. The rats are sacrificed the next morning and the number of animals ovulating and the number of ova shed are recorded following the procedure described by E. S. France, Neuroendocrinology 6, pp 77-89 (1970). The absence of or a significant decrease in the number of ova is the criterion for an anti-ovulation effect.

[2] = test system: ovulation; conditions: as described in Ser. No. 402,958, now U.S. Pat. No. 3,855,199; cited from earlier work

Row | Molecule | antiovulatory activity (result in words) [1] | anti-ovulatory activity (result in words) [2]
1 | CCNC(=O)[C@@H]1CCCN1C(=O)[C@H](CCCNC(=N)N)NC(=O)[C@H](CC(C)C)NC(=O)[C@@H](C)NC(=O)[C@H](Cc1ccc(O)cc1)NC(=O)[C@H](CO)NC(=O)[C@H](Cc1c[nH]c2ccccc12)NC(=O)[C@@H](Cc1ccccc1)NC(=O)[C@@H]1CCC(=O)N1 [p-Glu-D-Phe-Trp-Ser-Tyr-D-Ala-Leu-Arg-Pro-NHEt] ([pGlu][dF]WSY[dA]LRP-NHEt) | devoid of antiovulatory activity | 
2 | [D-Phe^2 -D-Ala^6 ]-LRF |  | having anti-ovulatory activity
